“Also recorded” adds a separate entry of the source. Where two headings read alike, the source gives them in different places. Marks after values point to notes of the source that are not given here. Non-standard residues stand in square brackets, D forms with d. No end group written: not given here. *: point of attachment. β‑Lac = OC[C@H]1O[C@@H](O[C@H]2[C@H](O)[C@@H](O)[C@H](*)O[C@@H]2CO)[C@H](O)[C@@H](O)[C@H]1O; Dmt = Cc1cc(O)cc(C)c1C[C@H](N)C(=O)O
Columns and labels:
MOPr [1] = target: T1, MOPr (Mus musculus, UniProt P42866); experiment: Ser375 phosphorylation assay in AtT20 cells expressing MOPr; format: cell-based; set-up: expressed in transfected cells; conditions: met-enkephalin defined as 100%
T1 sequence (P42866 whole entry): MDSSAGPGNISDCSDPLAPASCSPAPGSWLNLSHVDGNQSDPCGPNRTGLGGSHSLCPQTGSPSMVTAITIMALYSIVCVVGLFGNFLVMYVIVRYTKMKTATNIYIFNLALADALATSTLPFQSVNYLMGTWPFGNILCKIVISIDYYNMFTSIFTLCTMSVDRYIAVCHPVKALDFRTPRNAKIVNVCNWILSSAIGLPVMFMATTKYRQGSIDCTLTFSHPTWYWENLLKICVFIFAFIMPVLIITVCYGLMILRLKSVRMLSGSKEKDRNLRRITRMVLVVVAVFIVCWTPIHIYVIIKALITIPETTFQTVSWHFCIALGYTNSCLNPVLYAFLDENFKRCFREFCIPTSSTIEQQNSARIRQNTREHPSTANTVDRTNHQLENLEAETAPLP
Protocol: Cells were serum starved for at least 30 min and then incubated in the absence or presence of the indicated ligand for 5-10 min at 37° C. Phosphorylation was terminated by fixing the cells with −30° C. methanol followed by 10 min incubation on ice. Cells were washed three times with phosphate buffered saline (PBS) and then heated in sodium citrate buffer (10 mM, 0.05% Tween 20, pH.6) for 20 min at 95° C. […] Imaging was performed as detailed below.
(§1) Imaging parameters including laser intensity, photomultiplier tube (PMT) voltage and offset remained constant for each experiment. Mean fluorescence intensity was measured using ImageJ software to calculate mean gray value of an area defined […] a single cell. Each experiment was normalized to the mean of untreated cells as 0% and the mean of cells treated with saturating concentrations of Met-enk (30 μM) as 100%.

MOPr [2] = target: T1, MOPr; experiment: MOPr internalisation (endocytosis assay) in AtT20 cells; format: cell-based; set-up: expressed in transfected cells
Protocol: as §1
MOPr internalisation was assessed immunocytochemically after 30 minutes of agonist treatment (FIGS. 8, 9). […] Endocytosis assay: Receptor internalization was quantified using a ratiometric staining of membrane and internalized receptors. […] Cells were then incubated for an additional 30 min with indicated agonist at 37° C. To unbind the M1 anti-FLAG antibody from the surface receptors, cells were quickly washed three times with ice-cold PBS lacking Mg^2+ and Ca^2+ and supplemented with 0.04% EDTA (pH 7.4).

MOPr [3] = target: T1, MOPr; format: cell-based; set-up: expressed in transfected cells; host or cells: AtT20 cells, transient co-transfection
Protocol: Arrestin recruitment: Agonist-induced recruitment of β-arrestin2 to MOPr was examined using a BRET-based approach. AtT20 cells were plated in 10-cm dishes and co-transfected with MOPr C-terminally tagged with Rluc8 (MOPr-RLuc8), β-arrestin2-YFP and GRK2 (1 μg, 4 μg and 2 μg, respectively). 24 h after transfection wells were replated into white opaque 96-well plates (CulturPlate, PerkinElmer) and allowed to adhere overnight. Cells were washed with Hank's Balanced Salt Solution (HBSS) and equilibrated in HBSS for 30 min at 37° C. prior to the experiment. Coelenterazine h was added to a final concentration of 5 μM 10 min before dual fluorescence/luminescence measurement in a LUMIstar Omega plate reader (BMG LabTech). Baseline BRET was measured for 30 sec prior to addition of the indicated ligand. The BRET signal was calculated as the ratio of light emitted at 530 nm by YFP over the light emitted at 430 nm by Renilla luciferase 8 (RLuc8).

mouse MOPr (mMOPr) = target: T2, mouse MOPr (mMOPr) (Mus musculus, UniProt P42866); format: cell-based; conditions: for GIRK (80% knockdown) log(tau/KA): operational model fit
T2 construct: expressed in transfected cells
T2 sequence (P42866 whole entry): as above

MOPr [4] = target: T1, MOPr; format: cell-based; set-up: expressed in transfected cells; conditions: for internalisation signal in GRK2 positive cells: GRK2-YFP and β-arrestin 2-HA overexpressed
Protocol: Endocytosis assay: Receptor internalization was quantified using a ratiometric staining of membrane and internalized receptors. […] Cells were then incubated for an additional 30 min with indicated agonist at 37° C. To unbind the M1 anti-FLAG antibody from the surface receptors, cells were quickly washed three times with ice-cold PBS lacking Mg^2+ and Ca^2+ and supplemented with 0.04% EDTA (pH 7.4).
Only YFP positive cells were analyzed for internalization.
See also FIGS. 11C and 11D.

[5] = target: human µ-opioid receptor (hMOPr), human recombinant MOPr expressed in HEK-293 cells (human) (UniProt P35372); experiment: cell-based or functional assay
human µ-opioid receptor (hMOPr), human recombinant MOPr expressed in HEK-293 cells (human), sequence (P35372 whole entry): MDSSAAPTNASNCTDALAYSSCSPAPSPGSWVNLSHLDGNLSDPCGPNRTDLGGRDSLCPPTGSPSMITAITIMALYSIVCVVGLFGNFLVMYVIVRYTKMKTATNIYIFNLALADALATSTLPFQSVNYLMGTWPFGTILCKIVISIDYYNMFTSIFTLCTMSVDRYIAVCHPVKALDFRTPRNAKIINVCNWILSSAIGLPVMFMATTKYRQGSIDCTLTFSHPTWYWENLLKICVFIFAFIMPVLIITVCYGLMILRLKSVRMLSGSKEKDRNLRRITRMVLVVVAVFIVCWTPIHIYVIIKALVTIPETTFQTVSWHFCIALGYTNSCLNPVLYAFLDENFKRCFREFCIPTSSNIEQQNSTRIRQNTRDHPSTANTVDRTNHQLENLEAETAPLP

MOPr [6] = target: T3, MOPr (Rattus norvegicus, UniProt P33535); experiment: Patch-clamp recordings of GIRK currents in rat locus coeruleus (LC) neurons; format: cell-based
T3 construct: which natively express MOPr but not DOPr or KOPr; from tissue; host or cells: brain slices with locus coeruleus neurons, male Sprague Dawley rats
T3 sequence (P33535 whole entry): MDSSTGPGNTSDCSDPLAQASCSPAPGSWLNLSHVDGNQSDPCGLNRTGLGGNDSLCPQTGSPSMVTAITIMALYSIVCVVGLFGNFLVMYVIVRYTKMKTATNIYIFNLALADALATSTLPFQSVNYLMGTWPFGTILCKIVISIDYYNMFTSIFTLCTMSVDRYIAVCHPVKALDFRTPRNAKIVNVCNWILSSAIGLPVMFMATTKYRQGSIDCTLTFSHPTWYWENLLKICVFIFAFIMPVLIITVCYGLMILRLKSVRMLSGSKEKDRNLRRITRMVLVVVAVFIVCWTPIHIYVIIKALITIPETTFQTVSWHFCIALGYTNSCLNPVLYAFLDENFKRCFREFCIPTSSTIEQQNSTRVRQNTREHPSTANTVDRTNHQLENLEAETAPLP
Protocol: Briefly, rats were anesthetized with isoflurane and decapitated. The brain was dissected and mounted in a vibratome chamber (Leica biosystem, VT100, Wetzlar, Germany) in order to prepare horizontal brain slices (280 μm). […] Slices were incubated in warm oxygenated ACSF for at least 30 min before recording. Slices were transferred to the recording chamber while warm ACSF (34° C.) was superfused at a rate of ˜2 mL/min. Whole-cell voltage-clamp recordings were acquired from LC neurons with Multiclamp 700B amplifier (Molecular Devices, CA, USA) at holding potential of −60 mV. […] Continuous current recordings were collected in chart mode at 500 Hz and filtered at 20-50 Hz using Axograph X (Axograph Scientific, Sydney, Australia). Series resistance monitored throughout the experiments and remained <15 MΩ; otherwise the data were discarded. Outward current was measured as the difference between baseline current and peak current of drug application.

[7] = target: FLAG tagged mouse MOPr (mMOPr) stably expressed in AtT20 cells (mouse) (UniProt P42866); experiment: cell-based or functional assay
FLAG tagged mouse MOPr (mMOPr) stably expressed in AtT20 cells (mouse), sequence (P42866 whole entry): as the sequence (P42866 whole entry) above

[8] = target: MOPr C-terminally tagged with Rluc8 (MOPr-RLuc8), transfected in AtT20 cells; experiment: cell-based or functional assay
MOPr [9] = target: T1, MOPr; experiment: GIRK conductance in MOPr expressing AtT20 cells without fractional inactivation of MOPr; format: cell-based; set-up: expressed in transfected cells
Protocol: The recording electrodes were first front filled with this internal solution and then backfilled with the same solution containing 200 μg/ml amphotericin B (in 0.8% DMSO). […] Liquid junction potential was calculated to be +16 mV and was adjusted before the start of each recording. […] Currents were sampled at 100 Hz, low pass filtered at 50 Hz and recorded on hard disk for later analyses. IGIRK was recorded using a 200 ms voltage step to −120 mV from a holding potential of −60 mV delivered every 2 s. Drugs were perfused directly onto cells using a ValveLink 8.2 pressurized pinch valve perfusion system (AutoMate Scientific, USA).

C57BL/6 mice = experiment: Nociception (analgesia) testing on 54 C hotplate; format: in vivo, mouse; conditions: for analgesic activity after systemic administration: 54° C. hotplate
Protocol: Experiments were performed under the guidelines of the Australian code of practice for the care and use of animals for scientific purposes (National Health and Medical Research Council, Australia, 7th Edition). Great care was taken to minimise animal suffering during these experiments and to reduce the number of animals used. […] Food and water was available ad libitum. Mice were given at least 7 days to habituate to housing facilities prior to handling, and handled by the experimenter for 4 days prior to testing. […] The experimenter was blind to all drugs tested. Animals were tested on a 54° C. hotplate, with a maximum cut-off time of 20 seconds to prevent tissue damage. Endpoints were hindpaw lick, hindpaw flutter or jump. […] The percentage of maximal possible effects (% MPE) were calculated as follows: % MPE=(test latency−baseline latency)/(cutoff latency−baseline latency)×100%. The cut-off latency was 20 seconds. Significant differences were assessed with a two-way ANOVA and Tukey's post hoc multiple comparisons test. […] Doses were transformed to the logarithm of μmol/kg. A two-way ANOVA was used to compare data at equimolar doses.

[10] = target: MOPr natively expressed by rat locus coeruleus (LC) neurons (rat, UniProt P33535 1-398); experiment: cell-based or functional assay
MOPr natively expressed by rat locus coeruleus (LC) neurons, sequence (P33535 whole entry): as the sequence (P33535 whole entry) above

[11] = target: T4, human µ-opioid receptor (hMOPr), human recombinant MOPr expressed in HEK-293 cells (human, UniProt P35372 1-400); experiment: cell-based or functional assay
T4 sequence (P35372 whole entry): as the sequence (P35372 whole entry) above

[12] = target: T4, human µ-opioid receptor (hMOPr), human …; experiment: competition with [3H]DAMGO (0.5 nM), membranes with human recombinant MOPr (HEK-293), filtration and scintillation counting
Protocol: (§2) The specific ligand binding to the receptors is defined as the difference between the total binding and the nonspecific binding determined in the presence of an excess of an unlabelled opioid ligand (naloxone, 10 μM). The results are expressed as a percent of control specific binding ((measured specific binding/control specific binding)×100) obtained in the presence of unlabelled peptides of interest. The IC₅₀ values (concentration causing a half-maximal inhibition of control specific binding) and Hill coefficients (nH) were determined by non-linear regression analysis of the competition curves generated with mean replicate values using Hill equation curve fitting (Y=D+[(A−D)/(1+(C/C₅₀nH)], where Y=specific binding, D=minimum specific binding, A=maximum specific binding, C=compound concentration, C₅₀=IC₅₀, and nH=slope factor).

[13] = target: T4, human µ-opioid receptor (hMOPr), human …; experiment: competition with [3H]DAMGO at hMOPr
Protocol: as §2

endomorphin-2
Phosphorylation Emax (MOPr [1]): 98 ± 2% | Internalisation Emax (MOPr [2]): 94 ± 3% | Internalisation log(tau/KA) (MOPr [2]): 6.2 ± 0.05 | MOPr internalisation (MOPr [2]): robust internalisation | β-arrestin 2 recruitment Emax (MOPr [3]; BRET): 100 ± 3 | β-arrestin 2 recruitment log(tau/KA) (MOPr [3]; operational model fit): 7.0 ± 0.06 | GIRK (80% knockdown) log(tau/KA) (mouse MOPr (mMOPr)): 7.5 ± 0.04

met-enkephalin
Phosphorylation Emax (MOPr [1]): 100* % | Internalisation Emax (MOPr [2]): 100* % | MOPr internalisation (MOPr [2]): robust internalisation

COc1ccsc1CNCC[C@@]1(c2ccccn2)CCOC2(CCCC2)C1 [oliceridine]
internalisation signal in GRK2 positive cells (MOPr [4]): clear internalisation signals | Internalisation Emax (MOPr [2]; 30 min agonist, met-enkephalin defined as 100%): No activity | GGIRK maximal response / intrinsic efficacy (mouse MOPr (mMOPr)): significantly less efficaciously than either morphine or bilorphin | GIRK (80% knockdown) Emax (mouse MOPr (mMOPr); AtT20 mMOPr cells after β-CNA, relative to somatostatin): 0.33 ± 0.01 | GIRK (80% knockdown) log(tau/KA) (mouse MOPr (mMOPr)): 7.2 ± 0.08

H-FVVF-NH2 (peptide)
% inhibition of forskolin-stimulate cAMP formation in hMOPr HEK cells (10 um) [5]: 19%

CC(=O)N[C@@H](Cc1ccc(O)cc1)C(=O)N[C@@H](C(=O)N[C@H](C(=O)N[C@H](Cc1ccccc1)C(N)=O)C(C)C)C(C)C [3d, Aε-YvVf-NH2]
activity in LC neurons (MOPr [6]; 10-30 μM): inactive

endomorphin-2 (peptide)
GIRK (80% knockdown): Emax [7]: 0.64 | GIRK (80% knockdown): log(EC50) [7]: -6.9 | GIRK (80% knockdown): log(tau/KA) [7]: 7.5 | Internalisation of MOPr: Emax [7]: 94% | Internalisation of MOPr: log(EC50) [7]: -6.4 | Internalisation of MOPr: log(tau/KA) [7]: 6.2 | Phosphorylation (Ser375 of MOPr): Emax [7]: 98% | Phosphorylation (Ser375 of MOPr): log(EC50) [7]: -7.2 | Phosphorylation (Ser375 of MOPr): log(tau/KA) [7]: 7.2 | β-arrestin 2 recruitment (BRET): Emax [8]: 100 | β-arrestin 2 recruitment (BRET): log(EC50) [8]: -7 | β-arrestin 2 recruitment (BRET): log(tau/KA) [8]: 7

2,6-dimethyl-L-tyrosine-D-Val-L-Val-D-Phe-L-Ser(β-Lac)-NH2 ([Dmt][dV]V[dF]S(β‑Lac)-NH2; N-terminus assumed; SMILES Cc1cc(O)cc(C)c1C[C@H](N)C(=O)N[C@@H](C(=O)N[C@H](C(=O)N[C@H](Cc1ccccc1)C(=O)N[C@@H](CO[C@@H]1O[C@H](CO)[C@@H](O[C@@H]2O[C@H](CO)[C@H](O)[C@H](O)[C@H]2O)[C@H](O)[C@H]1O)C(N)=O)C(C)C)C(C)C) [peptide 3g]
agonist action in AtT20 cells (MOPr [9]): potent partial opioid agonist | potency compared with bilorphin in AtT20 cells (MOPr [9]): small loss of potency | internalization compared to bilorphin (MOPr [4]; 30 μM, after GRK2 overexpression): modest | β-arrestin recruitment compared to bilorphin (MOPr [3]): modest | analgesic activity after systemic administration (C57BL/6 mice; s.c., listed as Bilactorphin): dose-dependent analgesia; also recorded: equipotent with morphine | analgesic activity after systemic administration (C57BL/6 mice; s.c., listed as bilactorphin): potent analgesic | peak effect after i.v (C57BL/6 mice; hotplate, i.v): 88.9±11.8 % MPE | activity after oral administration (C57BL/6 mice; hotplate, oral gavage): active | ED50, hotplate, systemic administration s.c. (C57BL/6 mice; s.c.): 34 µmol/kg

Cc1cc(O)cc(C)c1C[C@H](N)C(=O)N[C@@H](C(=O)N[C@H](C(=O)N[C@H](Cc1ccccc1)C(N)=O)C(C)C)C(C)C [peptide 3c, 2,6-dimethyl-L-tyrosine-D-Val-L-Val-D-Phe-NH2]
agonist action in AtT20 cells (MOPr [9]): potent partial opioid agonist | internalisation signal in GRK2 positive cells (MOPr [4]): clear internalisation signals | agonist action on GIRK current in LC neurons (MOPr [6]; compared with morphine): agonist with potency greater than morphine | peak effect after intrathecal injection (C57BL/6 mice; hotplate, 5 nmol/mouse intrathecal): 41±9 % MPE | nociception in the hotplate test, intravenous (C57BL/6 mice; i.v. 50 mg/kg, versus vehicle): failed to inhibit nociception | nociception in the hotplate test, subcutaneous (C57BL/6 mice; s.c. 100 mg/kg, versus vehicle): failed to inhibit nociception

DAMGO ([D-Ala^2, N-MePhe^4, Gly^5-ol]-enkephalin) (peptide)
% inhibition of forskolin-stimulate cAMP formation in hMOPr HEK cells (10 um) [5]: 94%

H-YVVF-NH2 [H-YVVF-NH2]
Agonist potency in LC neurons EC50 [10]: > 10000 nM

H-YVVF-OH [H-YVVF-OH]
Agonist potency in LC neurons EC50 [10]: > 10000 nM

FVVF (D-Val at 2; D-Phe at 4; C-terminal amide, also called 1e; peptide 1e) [H-FvVf-NH2 (L-Phe-D-Val-L-Val-D-Phe-NH2)]
% inhibition of forskolin-stimulate cAMP formation in hMOPr HEK cells (10 um) [11]: 47% | Ki [12]: 750 nM | fold improvement of affinity over Bilaid A (1a) [13]: 4 fold

Ac-Y[dV]V[dF]-NH2 [Ac-YvVf-NH2]
Agonist potency in LC neurons EC50 [10]: > 10000 nM

YVVF (D-Val at 2; D-Phe at 4; C-terminal amide, also called 3b; peptide 3b) [H-YvVf-NH2 (L-Tyr-D-Val-L-Val-D-Phe-NH2)]
Ki [12]: 93 nM | fold increase of affinity over Bilaid C (3a) [13]: 2 fold

From patent US20210355166A1, “[…] METHODS OF USE THEREOF” (priority 2018, published 2021)
